Test results as given in patent US20020183305A1 (Schering Corporation, priority 2001, published 2002).

System: Hypercholesterolemic Golden Syrian hamsters
Experiment: In vivo efficacy in cholesterol-fed hypercholesterolemic hamsters (plasma cholesterol, plasma triglyceride, hepatic cholesteryl ester)
[1] = cholesterol-fed hamsters, versus Control, Table 1

Experimental: Male Golden Syrian hamsters (Charles River Labs, Wilmington, MA) weighing between 100 and 125 g were fed Wayne rodent chow until study onset. At study onset (Day 1) animals were separated into groups (n=4-6/group) and fed chow supplemented with 0.5% by weight of cholesterol (Research Diets Inc., New Brunswick, NJ). The Control and Test compounds were administered once daily for 7 days, starting on Day 1 via oral gavage in 0.2 ml corn oil. Corn oil was used as the Control.
On Day 7, blood was collected into tubes containing ethylenediaminetetraacetic acid (EDTA), and plasma was prepared by low speed centrifugation at 40C. Liver samples (0.5 g) were taken for neutral lipid analyses.
Nonfasted plasma cholesterol levels were determined by a modification of the cholesterol oxidase method, in which the reagents were available in a kit form from Wako Pure Chemicals Industries, Ltd. (Osaka, Japan). […] Assays were carried out at 37° C. for 10 min, along with cholesterol standards (Sigma Chemical Co., St. Louis, Mo.) and the resultant red quinone pigment's absorbance was determined spectrophotometrically at 505 nm.
Samples of liver (0.5 g) were lipid extracted. Lipid extracts were dried under nitrogen into HPLC sample vials, resuspended in hexane and injected onto a Zorbax Sil (4.6×25 cm) silica column. […] Lipids were detected by absorbance at 206 nm and quantitated by computer integration (System Gold, Beckman) of elution profiles. […] Cholesteryl ester content of liver-derived samples was derived from a standard curve constructed using known amounts of cholesteryl oleate.

SMILES: COc1ccc([C@@H]2[C@@H](CCCc3ccccc3)C(=O)N2c2ccc(OC)cc2)cc1 [Compound XII]
- effect on accumulation of hepatic cholesteryl esters (in words) [1]: reduced
- effect on plasma cholesterol levels (in words) [1]: reduced
- Hepatic Cholesteryl Ester (male hamsters fed chow with 0.5% cholesterol, oral gavage in corn oil once daily for 7 days, liver Day 7, Compound XII 3 mg/kg/day, niacin 100 mg/kg/day): 12.75 ± 1.12 mg/g
- Plasma Cholesterol (male hamsters fed chow with 0.5% cholesterol, oral gavage in corn oil once daily for 7 days, nonfasted plasma Day 7, Compound XII 3 mg/kg/day, niacin 100 mg/kg/day): 214 ± 13 mg/dL
- Plasma Triglyceride (male hamsters fed chow with 0.5% cholesterol, oral gavage in corn oil once daily for 7 days, plasma Day 7, Compound XII 3 mg/kg/day, niacin 100 mg/kg/day): 200 ± 30 mg/dL
